Measured values as given in the supplement of paper PMC10331698.
± gives the standard deviation of the averaged measurements.

Assays:
Experiment in all cases: level (log10 ratio to DMSO vehicle control); higher = higher biomarker level / cell amount than vehicle control
Details in all cases: in DMSO
[1] = compound: O=C(O)C(F)(F)C(F)(F)C(F)(F)OC(F)(C(F)(F)F)C(F)(F)F [Perfluoro-4-isopropoxybutanoic acid]
Method: (§1)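 BioMAP Diversity Plus panel of 12 human primary cell co-culture systems (3C, 4H, LPS, SAg, BT, BF4T, BE3C, CASM3C, HDF3CGF, KF3CT, MyoF, Mphg). Compounds were added 1 h before stimulation and left for 24 h (MyoF 48 h; BT 72 h for soluble read-outs or 6 d for IgG). Biomarkers were read by ELISA, cytotoxicity by SRB, PBMC viability and proliferation by Alamar Blue. Each well value was divided by the mean of 8 DMSO control wells on the same plate and log10 transformed; duplicate blinded samples were tested at 4 concentrations.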

Perfluorodecanoic acid = compound: O=C(O)C(F)(F)C(F)(F)C(F)(F)C(F)(F)C(F)(F)C(F)(F)C(F)(F)C(F)(F)C(F)(F)F [Perfluorodecanoic acid]
Method: as §1

Heptafluorobutyramide = compound: NC(=O)C(F)(F)C(F)(F)C(F)(F)F [Heptafluorobutyramide]
Method: as §1

[2] = compound: O=C(O)C(F)(F)C(F)(F)OC(F)(F)F [Perfluoro-3-methoxypropanoic acid]
Method: as §1

Pentafluoropropionamide = compound: NC(=O)C(F)(F)C(F)(F)F [Pentafluoropropionamide]
Method: as §1

[3] = compound: C=C(C)C(=O)OCCC(F)(F)C(F)(F)C(F)(F)C(F)(F)C(F)(C(F)(F)F)C(F)(F)F [(Perfluoro-5-methylhexyl)ethyl 2-methylprop-2-enoate]
Method: as §1

Test System	level (log10) ([1]; 6700 nM)	level (log10) ([1]; 20000 nM)	level (log10) ([1]; 60000 nM)	level (log10) (Perfluorodecanoic acid; 6700 nM)	level (log10) (Perfluorodecanoic acid; 20000 nM)	level (log10) (Heptafluorobutyramide; 6700 nM)	level (log10) (Heptafluorobutyramide; 20000 nM)	level (log10) (Heptafluorobutyramide; 60000 nM)	level (log10) ([2]; 6700 nM)	level (log10) ([2]; 20000 nM)	level (log10) ([2]; 60000 nM)	level (log10) (Pentafluoropropionamide; 6700 nM)	level (log10) (Pentafluoropropionamide; 20000 nM)	level (log10) (Pentafluoropropionamide; 60000 nM)	level (log10) ([3]; 6700 nM)	level (log10) ([3]; 20000 nM)
MyoF:MMP-1	-0.0155 ± 0.0092	0.0115 ± 0.013	0.045 ± 0.051	-0.0005 ± 0.023	-0.048 ± 0.0057	-0.0185 ± 0.018	-0.0105 ± 0.049	0.027 ± 0.082	-0.0135 ± 0.0064	0.0055 ± 0.011	0.0105 ± 0.043	-0.0305 ± 0.063	-0.0255 ± 0.0064	0.016 ± 0.058	-0.023 ± 0.0057	-0.0365 ± 0.074
HDF3CGF:MMP-1	-0.0055 ± 0.0035	0 ± 0.0028	-0.0015 ± 0.011	-0.041 ± 0.0028	-0.174 ± 0.08	0.004 ± 0.011	-0.01	0.001 ± 0.0057	-0.01 ± 0.011	0 ± 0.0071	-0.0035 ± 0.021	0.006 ± 0.0085	-0.011 ± 0.0085	-0.01	0.002 ± 0.0085	0.008 ± 0.018
lMphg:SRB-Mphg	-0.0085 ± 0.012	-0.0025 ± 0.005	-0.019 ± 0.0028	0.0065 ± 0.00071	-0.005 ± 0.0085	-0.038 ± 0.0071	-0.0175 ± 0.0021	0.0155 ± 0.036	-0.007 ± 0.02	-0.0165 ± 0.019	-0.022 ± 0.025	-0.0135 ± 0.074	0.0555 ± 0.043	0.0595 ± 0.0078	0.0015 ± 0.011	-0.0095 ± 0.021
BE3C:PAI-I	-0.0155 ± 0.028	0.002 ± 0.017	0.0115 ± 0.032	-0.0475 ± 0.013	-0.4 ± 0.047	-0.0065 ± 0.00071	-0.0025 ± 0.00071	-0.0115 ± 0.015	-0.012 ± 0.0057	-0.009 ± 0.018	0.012 ± 0.0014	0.002 ± 0.0057	-0.009 ± 0.03	-0.016 ± 0.0028	0.007 ± 0.03	0.0205 ± 0.019
HDF3CGF:Collagen I	-0.0285 ± 0.067	-0.043 ± 0.078	0.032 ± 0.12	-0.02 ± 0.025	-0.0095 ± 0.04	0.0065 ± 0.011	-0.0025 ± 0.015	0.0155 ± 0.069	-0.0095 ± 0.07	-0.0085 ± 0.052	0.058 ± 0.025	0.039 ± 0.075	0.0205 ± 0.033	0.055 ± 0.047	0.0115 ± 0.067	0.034 ± 0.092
lMphg:CD69	-0.044 ± 0.014	-0.069 ± 0.021	-0.0455 ± 0.054	-0.013 ± 0.054	-0.055 ± 0.052	-0.0155 ± 0.022	-0.0145 ± 0.044	0.0115 ± 0.066	-0.0495 ± 0.043	-0.0005 ± 0.026	0.017 ± 0.04	-0.021 ± 0.0071	-0.036	0.0125 ± 0.077	-0.064 ± 0.082	-0.0825 ± 0.08
KF3CT:MMP-9	0.0055 ± 0.0035	0.022 ± 0.02	0.078 ± 0.014	-0.103 ± 0.037	-0.308 ± 0.0028	0.002	-0.0005 ± 0.00071	0.0035 ± 0.00071	-0.002 ± 0.0085	0.001 ± 0.0071	0.01 ± 0.014	-0.0375 ± 0.012	-0.0255 ± 0.00071	-0.0105 ± 0.012	-0.0045 ± 0.037	-0.027 ± 0.041
lMphg:CD62E/E-Selectin	-0.011 ± 0.027	0.007 ± 0.038	0.0005 ± 0.039	-0.026 ± 0.0028	-0.0135 ± 0.011	0.035 ± 0.051	-0.009 ± 0.064	-0.0285 ± 0.054	-0.012 ± 0.018	-0.037 ± 0.03	0.019 ± 0.075	-0.018 ± 0.0014	0.016 ± 0.014	-0.013 ± 0.0071	-0.0135 ± 0.011	-0.01 ± 0.017
MyoF:alpha-SM Actin	0.0045 ± 0.023	0.008 ± 0.033	0.026 ± 0.052	0.031 ± 0.027	-0.04 ± 0.016	0.0105 ± 0.033	-0.004 ± 0.033	0.0015 ± 0.018	0.0015 ± 0.00071	0.011 ± 0.035	0.039 ± 0.0028	-0.007 ± 0.02	-0.0135 ± 0.019	-0.0195 ± 0.018	-0.018 ± 0.037	-0.0255 ± 0.04
KF3CT:CXCL10/IP-10	0.019 ± 0.034	0.017 ± 0.023	0.0235 ± 0.043	-0.044 ± 0.017	-0.134 ± 0.028	0.002 ± 0.0042	0.0015 ± 0.0078	0.005 ± 0.0099	0.011 ± 0.023	0.027 ± 0.034	0.03 ± 0.016	-0.007 ± 0.0014	0 ± 0.0028	-0.0145 ± 0.0035	-0.0085 ± 0.012	-0.0325 ± 0.00071
HDF3CGF:CXCL10/IP-10	-0.0135 ± 0.0064	-0.029 ± 0.011	-0.0615 ± 0.0035	-0.0745 ± 0.015	-0.427 ± 0.019	0.007 ± 0.0099	0 ± 0.0057	0.0035 ± 0.011	0.001 ± 0.011	0.0055 ± 0.011	-0.0135 ± 0.021	-0.0075 ± 0.022	-0.009 ± 0.011	0.006 ± 0.04	-0.0005 ± 0.0078	-0.003
HDF3CGF:PAI-I	-0.001 ± 0.033	-0.0115 ± 0.025	-0.0165 ± 0.013	0.15 ± 0.051	-0.107 ± 0.1	-0.0105 ± 0.018	-0.0275 ± 0.028	-0.0125 ± 0.03	0.0025 ± 0.0092	0.0135 ± 0.026	0.0185 ± 0.012	0.0125 ± 0.04	-0.011 ± 0.044	0 ± 0.014	-0.037 ± 0.0028	-0.0385 ± 0.019
HDF3CGF:Collagen III	-0.02 ± 0.051	-0.0115 ± 0.011	-0.0025 ± 0.057	-0.08 ± 0.058	-0.0755 ± 0.021	-0.017 ± 0.014	-0.006 ± 0.013	-0.0145 ± 0.005	-0.0025 ± 0.0078	0.009 ± 0.024	0.039 ± 0.05	0.026 ± 0.02	0.009 ± 0.028	0.034 ± 0.0028	-0.0195 ± 0.05	0.0105 ± 0.05
MyoF:Collagen IV	-0.007 ± 0.035	-0.0025 ± 0.06	0.014 ± 0.047	0.334 ± 0.037	0.38 ± 0.086	-0.0185 ± 0.019	-0.01 ± 0.0028	0.0275 ± 0.023	-0.021 ± 0.02	0.002 ± 0.0085	0.009 ± 0.013	-0.0295 ± 0.03	-0.0275 ± 0.025	-0.007 ± 0.051	0.025 ± 0.02	0.058 ± 0.1
lMphg:M-CSF	-0.016 ± 0.0028	-0.0185 ± 0.015	0.016 ± 0.0085	0.019 ± 0.021	0.0105 ± 0.037	-0.014 ± 0.018	-0.034 ± 0.025	-0.0135 ± 0.00071	-0.0075 ± 0.012	-0.025 ± 0.0071	-0.0025 ± 0.037	-0.0185 ± 0.0035	-0.0285 ± 0.0021	0.002 ± 0.028	-0.005 ± 0.042	0.015 ± 0.042
lMphg:SRB	-0.003 ± 0.0071	-0.0035 ± 0.005	-0.009 ± 0.023	0.009 ± 0.0085	0.004 ± 0.0057	-0.015 ± 0.0099	-0.0025 ± 0.005	0 ± 0.02	-0.006 ± 0.0014	-0.0185 ± 0.005	0 ± 0.0028	0.004 ± 0.0071	-0.0025 ± 0.0092	-0.001 ± 0.0014	-0.0035 ± 0.0035	-0.0105 ± 0.0021
CASM3C:PAI-I	0.007 ± 0.016	0.01 ± 0.021	0.0075 ± 0.026	0.001 ± 0.0014	-0.0015 ± 0.005	-0.0045 ± 0.0021	-0.0045 ± 0.012	0.0105 ± 0.0035	0.0015 ± 0.022	0.004 ± 0.013	0.0095 ± 0.0078	-0.009 ± 0.0099	-0.007 ± 0.014	0.0005 ± 0.0064	-0.004 ± 0.0014	0.002 ± 0.0014
CASM3C:SRB	0.0015 ± 0.005	-0.007 ± 0.0071	0.0015 ± 0.012	0.0055 ± 0.0064	0.0055 ± 0.0064	-0.0135 ± 0.0078	0 ± 0.018	-0.0065 ± 0.0078	0.0025 ± 0.005	-0.0045 ± 0.005	0.0075 ± 0.015	-0.002 ± 0.0057	0 ± 0.0085	-0.0045 ± 0.00071	-0.0025 ± 0.005	-0.0095 ± 0.0035
